Assays:
[1] = log P by HPLC on reversed-phase column (EEC directive 79/831 Annex V.A8); format: physicochemical; details: for log p: HPLC on reversed-phase column (footnote a); for log p a): HPLC on reversed-phase column
Procedure: a) The determination of the [M+H]^+ by LC-MS in the acidic range was effected at pH 2.7, with acetonitrile (containing 0.1% formic acid) and water as eluents; linear gradient from 10% acetonitrile to 95% acetonitrile, instrument: Agilent 1100 LC system, Agilent MSD system, HTS PAL.
The log P values reported in the tables and preparation examples above were determined in accordance with EEC directive 79/831 Annex V.A8 by HPLC (High Performance Liquid Chromatography) using a reversed-phase column (C18). Temperature 43° C.

[2] = tested on: Myzus persicae; test: Myzus persicae oral test; format: in vivo; details: application rate 20 ppm, oral uptake through parafilm, after 5 days
Procedure: Myzus persicae—Oral Test Solvent: 100 parts by weight of acetone
To produce an appropriate active ingredient formulation, 1 part by weight of active ingredient is dissolved with the stated parts by weight of solvent and made up with water until the desired concentration is attained.
50 μl of the active ingredient formulation are transferred into microtitre plates and made up to a final volume of 200 μl with 150 μl of IPL41 insect medium (33%+15% sugar). Subsequently, the plates are sealed with parafilm, which a mixed population of green peach aphids (Myzus persicae) within a second microtitre plate is able to puncture and imbibe the solution through it.
After 5 days, the efficacy in % is determined. 100% means that all the aphids have been killed; 0% means that no aphids have been killed.

For `COCC(=O)c1c([O-])n(Cc2cnc(Cl)s2)c2ccc(Cl)c[n+]12` [Example I-1-118], the log p [1] was 1.69 and the efficacy [2] was 100%.

With `CCOCC(=O)c1c([O-])n(Cc2cnc(Cl)s2)c2ccc(Cl)c[n+]12` [Example I-1-119] the log p [1] was 1.96 and the efficacy [2] was 100%.

`COC(=O)c1c([O-])n(Cc2cnc(Cl)s2)c2cccc(Cl)[n+]12` [Example I-1-121] showed a log p [1] of 1.32 and an efficacy [2] of 100%.

Compound `COCC(=O)c1c([O-])n(Cc2cnc(OC)s2)c2cc(Cl)cc[n+]12` [Example I-1-124] has a log p [1] of 1.51 and an efficacy [2] of 100%.

In the case of `Cc1ccc2n(Cc3cnc(Cl)s3)c([O-])c(C(=O)CCl)[n+]2c1` [Example I-1-125], the log p [1] is reported as 1.99 and the efficacy [2] is reported as 90%.

`Cc1cc[n+]2c(C(=O)CCl)c([O-])n(Cc3cnc(Cl)s3)c2c1` [Example I-1-126] showed a log p [1] of 1.96 and an efficacy [2] of 90%.

With `CC(C)NC(=O)c1c([O-])n(Cc2cnc(Cl)s2)c2cccc[n+]12` [Example I-1-131] the log p [1] was 1.95 and the efficacy [2] was 100%.

Work on `O=C(NC1CC1)c1c([O-])n(Cc2ccc(Cl)nc2)c2cccc[n+]12` [Example I-1-133] yielded a log p [1] of 1.85 and an efficacy [2] of 90%.

For `O=C(NC1CCCC1)c1c([O-])n(Cc2cnc(Cl)s2)c2cccc[n+]12` [Example I-1-138], the log p [1] was 2.35 and the efficacy [2] was 100%.

For `CC(NC(=O)c1c([O-])n(Cc2cnc(Cl)s2)c2cccc[n+]12)c1ccc(Cl)cc1` (centres unmarked) [Example I-1-142], the log p [1] was 3.13 and the efficacy [2] was 100%.

For `O=C(Nc1ccc(Cl)nc1)c1c([O-])n(Cc2cnc(Cl)s2)c2cccc[n+]12` [Example I-1-146], the log p [1] was 2.55 and the efficacy [2] was 100%.

In the case of `CC(C)(C)NC(=O)c1c([O-])n(Cc2cnc(Cl)s2)c2cccc[n+]12` [Example I-1-151], the log p [1] is reported as 2.39 and the efficacy [2] is reported as 100%.

For `COC(=O)c1c([O-])n(Cc2ccc(Cl)nc2)c2ccc(F)c[n+]12` [Example I-1-155], the log p [1] was 1.43 and the efficacy [2] was 100%.

Work on `COC(=O)c1c([O-])n(Cc2ccc(Cl)nc2)c2cccc(C)[n+]12` [Example I-1-157] yielded a log p [1] of 1.27 and an efficacy [2] of 100%.

With `COC(=O)c1c([O-])n(Cc2cncc(Cl)c2)c2cccc[n+]12` [Example I-1-158] the log p [1] was 1.15 and the efficacy [2] was 100%.

Work on `Cc1ccc[n+]2c(C(=O)CCl)c([O-])n(Cc3ccc(Cl)nc3)c12` [Example I-1-159] yielded a log p [1] of 1.78 and an efficacy [2] of 100%.

Compound `COC(=O)c1c([O-])n(Cc2ccc(Cl)nc2)c2c(C)ccc[n+]12` [Example I-1-160] has a log p [1] of 1.39 and an efficacy [2] of 100%.

`COCC(=O)c1c([O-])n(Cc2ccc(Cl)nc2)c2c(Cl)ccc[n+]12` [Example I-1-164] showed a log p [1] of 1.59 and an efficacy [2] of 90%.

For `COCC(=O)c1c([O-])n(Cc2ccc(Cl)nc2)c2cccc(C)[n+]12` [Example I-1-166], the log p [1] was 1.33 and the efficacy [2] was 100%.

`COCC(=O)c1c([O-])n(Cc2ccc(Cl)nc2)c2ccc(C)c[n+]12` [Example I-1-167] gave a log p [1] of 1.48 and an efficacy [2] of 100%.

`O=C(CCl)c1c([O-])n(Cc2cnc(Cl)c(Cl)c2)c2cccc[n+]12` [Example I-1-168] gave a log p [1] of 2.11 and an efficacy [2] of 100%.

`O=C(NC1CC1)c1c([O-])n(Cc2ccc(Cl)nc2)c2ccc(F)c[n+]12` [Example I-1-170] showed a log p [1] of 1.79 and an efficacy [2] of 100%.

Compound `Cc1cccc2n(Cc3ccc(Cl)nc3)c([O-])c(C(=O)NC3CC3)[n+]12` [Example I-1-171] has a log p [1] of 1.05 and an efficacy [2] of 100%.

`N#Cc1ccc[n+]2c(C(=O)CCl)c([O-])n(Cc3ccc(Cl)nc3)c12` [Example I-1-172] gave a log p [1] of 1.78 and an efficacy [2] of 90%.

Compound `COCC(=O)c1c([O-])n(Cc2cnc(OC)s2)c2ccc(C)c[n+]12` [Example I-1-173] has a log p [1] of 1.35 and an efficacy [2] of 100%.

`COCC(=O)c1c([O-])n(Cc2cnc(Cl)s2)c2ccc(C)c[n+]12` [Example I-1-174] showed a log p [1] of 1.52 and an efficacy [2] of 100%.

Work on `CCOCC(=O)c1c([O-])n(Cc2cnc(Cl)s2)c2ccc(C)c[n+]12` [Example I-1-175] yielded a log p [1] of 1.78 and an efficacy [2] of 100%.

With `CCOCC(=O)c1c([O-])n(Cc2cncc(Cl)c2)c2cccc[n+]12` [Example I-1-177] the log p [1] was 1.37 and the efficacy [2] was 100%.

`COCC(=O)c1c([O-])n(Cc2ccc(C(F)(F)F)nc2)c2cccc[n+]12` [Example I-1-180] showed a log p [1] of 1.49 and an efficacy [2] of 100%.

`Cc1ccc[n+]2c(C(=O)NC3CC3)c([O-])n(Cc3ccc(Cl)nc3)c12` [Example I-1-181] showed a log p [1] of 1.75 and an efficacy [2] of 100%.

Compound `CCOCC(=O)c1c([O-])n(Cc2ccc(Cl)nc2)c2c(C)ccc[n+]12` [Example I-1-182] has a log p [1] of 1.6 and an efficacy [2] of 100%.

Work on `CCOCC(=O)c1c([O-])n(C(C)c2ccc(Cl)nc2)c2cccc[n+]12` (centres unmarked) [Example I-1-186] yielded a log p [1] of 1.58 and an efficacy [2] of 100%.

`CCOCC(=O)c1c([O-])n(Cc2ccc(C(F)(F)F)nc2)c2cccc[n+]12` [Example I-1-188] gave a log p [1] of 1.72 and an efficacy [2] of 100%.

With `Cc1cccc2n(Cc3cnc(Cl)s3)c([O-])c(C(=O)NC3CC3)[n+]12` [Example I-1-190] the log p [1] was 1.16 and the efficacy [2] was 100%.

Compound `Cc1ccc[n+]2c(C(=O)NCC(C)C)c([O-])n(Cc3ccc(Cl)nc3)c12` [Example I-1-191] has a log p [1] of 2.33 and an efficacy [2] of 90%.

`CCOCC(=O)c1c([O-])n(Cc2cnc(Cl)c(Cl)c2)c2cccc[n+]12` [Example I-1-192] showed a log p [1] of 1.93 and an efficacy [2] of 100%.

For `O=C(NC1CC1)c1c([O-])n(Cc2cncc(Cl)c2)c2cccc[n+]12` [Example I-1-195], the log p [1] was 1.52 and the efficacy [2] was 90%.

With `COC(=O)c1c([O-])n(C(C)c2ccc(Cl)nc2)c2cccc[n+]12` (centres unmarked) [Example I-1-198] the “log p a)” value [1] was 1.32 and the efficacy [2] was 100%.

With `COC(=O)c1c([O-])n(Cc2cnc(Cl)c(Cl)c2)c2cccc[n+]12` [Example I-1-199] the “log p a)” value [1] was 1.66 and the efficacy [2] was 100%.

With `O=C(NC1CC1)c1c([O-])n(Cc2ccc(C(F)(F)F)nc2)c2cccc[n+]12` [Example I-1-200] the “log p a)” value [1] was 1.87 and the efficacy [2] was 90%.

For `O=C(NC1CC1)c1c([O-])n(Cc2cnc(Cl)c(Cl)c2)c2cccc[n+]12` [Example I-1-201], the “log p a)” value [1] was 2.08 and the efficacy [2] was 100%.

With `COCC(=O)c1c([O-])n(Cc2ccc(Cl)nc2)c2c(F)ccc[n+]12` [Example I-1-205] the “log p a)” value [1] was 1.44 and the efficacy [2] was 100%.

For `COC(=O)c1c([O-])n(Cc2cnc(Cl)s2)c2c(C)ccc[n+]12` [Example I-1-206], the “log p a)” value [1] was 1.46 and the efficacy [2] was 100%.

For `O=C(CCl)c1c([O-])n(Cc2ccc(F)nc2)c2cccc[n+]12` [Example I-1-207], the “log p a)” value [1] was 1.38 and the efficacy [2] was 100%.

For `COc1ccc(NC(=O)c2c([O-])n(Cc3cnc(Cl)s3)c3c(C)ccc[n+]23)cc1` [Example I-1-208], the “log p a)” value [1] was 2.91 and the efficacy [2] was 100%.

With `O=C(CCl)c1c([O-])n(Cc2cnc(Cl)s2)c2cccc[n+]12` [Example I-1-209] the “log p a)” value [1] was 1.24 and the efficacy [2] was 100%.

In the case of `Cc1ccc[n+]2c(C(=O)Nc3ccccc3)c([O-])n(Cc3cnc(Cl)s3)c12` [Example I-1-211], the “log p a)” value [1] is reported as 3.1 and the efficacy [2] is reported as 90%.

With `Cc1ccc[n+]2c(C(=O)Nc3c(F)cccc3F)c([O-])n(Cc3cnc(Cl)s3)c12` [Example I-1-212] the “log p a)” value [1] was 2.73 and the efficacy [2] was 100%.

For `Cc1ccc[n+]2c(C(=O)NC(C)(C)C)c([O-])n(Cc3cnc(Cl)s3)c12` [Example I-1-213], the “log p a)” value [1] was 2.69 and the efficacy [2] was 100%.

With `COC(=O)c1c([O-])n(Cc2ccc(F)nc2)c2c(C)ccc[n+]12` [Example I-1-214] the “log p a)” value [1] was 1.21 and the efficacy [2] was 100%.

For `COC(=O)c1c([O-])n(Cc2cnc(C)cn2)c2cccc[n+]12` [Example I-1-215], the “log p a)” value [1] was 0.80 and the efficacy [2] was 100%.

For `Cc1cnc(Cn2c([O-])c(C(=O)Nc3ccccc3)[n+]3ccccc23)cn1` [Example I-1-218], the “log p a)” value [1] was 2.05 and the efficacy [2] was 100%.

For `Cc1ccc[n+]2c(C(=O)Nc3ccc(F)cc3)c([O-])n(Cc3ccc(Cl)nc3)c12` [Example I-1-219], the “log p a)” value [1] was 2.9 and the efficacy [2] was 100%.

With `Cc1ccc[n+]2c(C(=O)NC3CC3)c([O-])n(Cc3ccc(F)nc3)c12` [Example I-1-222] the “log p a)” value [1] was 1.58 and the efficacy [2] was 100%.

For `Cc1ncc(Cn2c([O-])c(C(=O)NC3CC3)[n+]3cccc(C)c23)s1` [Example I-1-223], the “log p a)” value [1] was 1.45 and the efficacy [2] was 100%.

For `CCNC(=O)c1c([O-])n(C(C)c2ccc(Cl)nc2)c2cccc[n+]12` (centres unmarked) [Example I-1-228], the “log p a)” value [1] was 1.72 and the efficacy [2] was 100%.

With `CC(c1ccc(Cl)nc1)n1c([O-])c(C(=O)Nc2ccccc2)[n+]2ccccc12` (centres unmarked) [Example I-1-229] the “log p a)” value [1] was 2.8 and the efficacy [2] was 100%.

For `O=C(Nc1ccccc1Cl)c1c([O-])n(Cc2cnc(Cl)s2)c2cccc[n+]12` [Example I-1-234], the “log p a)” value [1] was 3.29 and the efficacy [2] was 100%.

From US20180282323A1, “Mesoionic imidazole derivatives as insecticides” (BAYER CROPSCIENCE AKTIENGESELLSCHAFT, priority 2015, published 2018)
